Experimental data from PubChem BioAssay (NCI).
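Five concentrations, 48 hours, 96-well plates. GI50: concentration for 50% inhibition of growth. TGI marks complete inhibition of growth.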

Key:
Assay in all cases: inhibition of tumour cell growth, NCI panel, 48 h
BT-549 breast = tested on: BT-549 breast
HOP-62 NSCLC = tested on: HOP-62 NSCLC
HS 578T breast = tested on: HS 578T breast
K-562 leukemia = tested on: K-562 leukemia
MALME-3M melanoma = tested on: MALME-3M melanoma
OVCAR-5 ovarian = tested on: OVCAR-5 ovarian
OVCAR-8 ovarian = tested on: OVCAR-8 ovarian
UO-31 renal = tested on: UO-31 renal
DLD-1 colon = tested on: DLD-1 colon
KM20L2 colon = tested on: KM20L2 colon

Compound | GI50 (BT-549 breast) | TGI (BT-549 breast) | GI50 (HOP-62 NSCLC) | TGI (HOP-62 NSCLC) | GI50 (HS 578T breast) | TGI (HS 578T breast) | GI50 (K-562 leukemia) | TGI (K-562 leukemia) | GI50 (MALME-3M melanoma) | TGI (MALME-3M melanoma) | GI50 (OVCAR-5 ovarian) | TGI (OVCAR-5 ovarian) | GI50 (OVCAR-8 ovarian) | TGI (OVCAR-8 ovarian) | GI50 (UO-31 renal) | TGI (UO-31 renal) | TGI (DLD-1 colon) | TGI (KM20L2 colon)
COc1c(C(C)=O)c(OCCCCOc2c(C(C)=O)c(OC)c3ccoc3c2OC)c(OC)c2occc12 | 1.61 µM | 5.22 µM | > 100 µM | > 100 µM | > 100 µM | > 100 µM | 5.45 µM | > 100 µM | 2.31 µM | 8.3 µM | > 100 µM | > 100 µM | 2.27 µM | 7.85 µM | 2.34 µM | > 100 µM |  | 
N#CC(CCN1CCC(Nc2ccccc2)(c2nnnn2C2CCCCC2)CC1)(c1ccccc1)c1ccccc1 |  | > 100 µM |  | > 100 µM |  | > 100 µM |  | > 100 µM |  | > 100 µM |  | > 100 µM |  | > 100 µM |  | > 100 µM |  | 
O=c1c2c([nH]c3nccn13)CCC2 |  | > 10 µM |  | > 10 µM |  | > 10 µM |  | > 10 µM |  | > 10 µM |  | > 10 µM |  | > 10 µM |  | > 10 µM |  | 
CCOc1ccc2c(-c3ccnc(Nc4cc(OC)cc(C(F)(F)F)c4)n3)cnn2n1 | 18.2 µM | > 25 µM | > 25 µM | > 25 µM | > 17.4 µM | > 25 µM | 1.97 µM | > 25 µM | > 25 µM | > 25 µM | > 25 µM | > 25 µM | > 15.4 µM | > 25 µM | > 25 µM | > 25 µM |  | 
OCCCCC#Cc1ccccc1C#Cc1ccc(O)cc1 | 14.1 µM | 28.8 µM | 21.9 µM | 38.1 µM | 26.2 µM | 77.1 µM | 20.4 µM | 45 µM | 20.9 µM | 43 µM | 16.5 µM | 35.2 µM | 17.1 µM | 34.9 µM | 13.2 µM | 26.7 µM |  | 
N#Cc1nc(-c2ccc(F)cc2)oc1S(=O)(=O)N1CCCCC1 | 2.24 µM | 5.74 µM | 5.59 µM | 25.5 µM | 2.24 µM | 5.74 µM | 2.43 µM | > 100 µM | 1.69 µM | 3.37 µM | 1.71 µM | 3.32 µM | 3.19 µM | 24.1 µM | 1.58 µM | 2.93 µM |  | 
Fc1ccc(-c2ncn(C3CCNCC3)c2-c2ccnc(Oc3ccc4c(c3)OCO4)n2)cc1 | > 21.3 µM | > 25 µM | > 25 µM | > 25 µM | > 12.7 µM | > 25 µM | > 23.1 µM | > 25 µM | 21.4 µM | > 25 µM | > 25 µM | > 25 µM | > 25 µM | > 25 µM | 7.81 µM | > 25 µM |  | 
COC(=O)c1c2c(c(C)[n+]([O-])c1C)C(=O)C=C(NCc1ccccc1)C2=O | 1.45 µM | 2.92 µM | 1.49 µM | 3.19 µM | 2.19 µM | 6.88 µM | 0.418 µM | 3.05 µM | 0.147 µM | 0.353 µM | 1.35 µM | 2.7 µM | 0.408 µM | 2.16 µM | 1.35 µM | 2.65 µM |  | 
COC(C)(C)[C@@H](O)[C@H](O)C[C@H](C)C1=C2CC[C@@H]3[C@@]4(C)CC[C@@H](OC(C)=O)C(C)(C)[C@@H]4C[C@@H](OC4OC(COC(C)=O)C(O)C(O)C4O)[C@@]3(C)[C@]2(C)CC1 (some centres not stated) | 15.1 µM | 28.7 µM | 14.3 µM | 27.4 µM | 11.8 µM | 28.3 µM | 6.06 µM | 22.3 µM | 15.2 µM | 29.4 µM | 14.9 µM | 28.1 µM | 12.8 µM | 26.3 µM | 13.6 µM | 26.9 µM |  | 
COc1ccc([C@H](CC(=O)O)N2CCN(CCCc3ccc4c(n3)NCCC4)C2=O)cn1 | 0.153 µM | 0.296 µM | 0.414 µM | > 100 µM | 7.15 µM | > 100 µM | > 80.8 µM | > 100 µM | > 100 µM | > 100 µM | 0.403 µM | > 100 µM | 0.277 µM | > 40 µM | > 36.7 µM | > 100 µM |  | 
CC1=CC2C(C(O)CC3(C)C2CC(C)C32OCOC23COCO3)C2(C)C/C(=C/O)C(=O)C=C12 (configuration not stated) | 1.62 µM | 3.17 µM | 1.99 µM | 3.52 µM | 2.28 µM | 5.72 µM | 2.09 µM | 5.73 µM | 1.84 µM | 3.58 µM | 1.98 µM | 3.92 µM | 1.76 µM | 3.73 µM | 1.52 µM | 3.04 µM |  | 
O=c1[nH]c(=O)n(C2CC(O)C(CO)O2)cc1Oc1ccccc1 (configuration not stated) |  | > 100 µM |  | > 100 µM |  | > 100 µM |  | > 100 µM |  | > 100 µM |  | > 100 µM |  | > 100 µM |  | > 100 µM |  | 
C=CC(=O)N1C/C(=C\c2ccc(Cl)c(Cl)c2)C(=O)/C(=C/c2ccc(Cl)c(Cl)c2)C1 |  |  |  | 0.607 µM |  |  |  | 0.28 µM |  |  |  | 1.02 µM |  | 0.274 µM |  | 0.528 µM | 0.154 µM | 0.545 µM
CN(C)Cc1ccc(-c2cc3onc(-c4ccccc4)c3c(=O)n2C)cc1 |  | > 100 µM |  | 41.3 µM |  | 46.2 µM |  | 74.2 µM |  | 72.5 µM |  | > 100 µM |  | > 100 µM |  | 26.6 µM |  | 
COc1cc2c3c(n(CCCN)c(=O)c2cc1OC)-c1ccc([N+](=O)[O-])cc1C3=O | 13.4 µM | 28 µM | 0.613 µM | 2.26 µM | 22.5 µM | 46.1 µM | 5.57 µM | 31.3 µM | 16.7 µM | 40.5 µM | 15.9 µM | 30.7 µM | 2 µM | 5.41 µM | 0.222 µM | 6.22 µM |  | 
CN(C)C(=O)Nc1nc2cc(Cl)c(Cl)cc2[nH]1 | 2.79 µM | > 100 µM | 3.84 µM | > 50.7 µM | 1.26 µM | > 55.1 µM | 0.41 µM | > 33.8 µM | 3.22 µM | 87.3 µM | 19.8 µM | > 100 µM | 2.46 µM | > 60.4 µM | 5.53 µM | > 100 µM |  | 
CN(C)c1ccc(Nc2c3ccccc3nc3ccccc23)cc1 | 1.71 µM | 8.19 µM | 1.14 µM | 2.59 µM | 1.65 µM | 9.47 µM | 0.847 µM | 7.83 µM | 1.2 µM | 3.03 µM | 1.54 µM | 6.72 µM | 0.868 µM | 3.25 µM | 0.359 µM | 1.87 µM |  | 
Cc1ccc2nc3ccccc3c(NCc3ccc(Cl)cc3)c2c1 | 6.38 µM | 13.3 µM | 6.89 µM | 16.3 µM | 7.88 µM | 20.2 µM | 1.51 µM | 5.28 µM | 5.85 µM | 12.5 µM | 4.67 µM | 11.1 µM | 5.77 µM | 16.6 µM | 1.53 µM | 8.25 µM |  | 
O=C(CCN1CCCC1)Nc1ccc2c(NCc3ccccc3)c3ccccc3nc2c1 | 1.4 µM | 3.04 µM | 0.471 µM | 2.51 µM | 0.612 µM | 2.75 µM | 0.385 µM | 1.41 µM | 0.605 µM | 1.99 µM | 0.424 µM | 2.06 µM | 0.452 µM | 2.84 µM | 1.55 µM | 4.05 µM |  | 
NC(=N\N=C/c1ccc(O)cc1)/C(N)=N\N=C/c1ccc(O)cc1 | 77.5 µM | > 100 µM | 20.7 µM | 67.1 µM | > 68.9 µM | > 100 µM | 0.782 µM | > 100 µM | > 100 µM | > 100 µM | > 100 µM | > 100 µM | 51.4 µM | > 100 µM | 1.21 µM | > 100 µM |  | 
C[C@H]1[C@H](C)N1CC(O)Cn1ccnc1[N+](=O)[O-] (some centres not stated) |  | > 100 µM |  | > 100 µM |  | > 100 µM |  | > 100 µM |  | > 100 µM |  | > 100 µM |  | > 100 µM |  | > 100 µM |  | 
O=C(O)C(Cc1cnc[nH]1)N1C(=O)c2ccccc2C1=O (configuration not stated) |  | > 100 µM |  | > 100 µM |  | > 100 µM |  | > 100 µM |  | > 100 µM |  | > 100 µM |  | > 100 µM |  | > 100 µM |  | 
[2H]C([2H])([2H])NC(=O)c1nnc(NC(=O)C2CC2)cc1Nc1cccc(-c2ncn(C)n2)c1OC | 23.2 µM | > 100 µM | 15.5 µM | > 100 µM | 14.7 µM | > 100 µM | 31.2 µM | > 100 µM | 98 µM | > 100 µM | > 100 µM | > 100 µM | 27.4 µM | > 100 µM | 5.93 µM | 60.4 µM |  | 
C/C(=C\c1ccn(-c2ccccc2N)n1)[C@@H]1C[C@@H]2O[C@]2(C)CCC[C@H](C)[C@H](O)[C@@H](C)C(=O)C(C)(C)[C@@H](O)CC(=O)O1 | 0.116 µM | > 13.1 µM | 0.112 µM | > 50 µM | 0.0658 µM | 10 µM | 0.0268 µM | > 50 µM | 0.127 µM | > 50 µM | 0.102 µM | > 40.9 µM | 0.0617 µM | > 50 µM | 0.302 µM | > 50 µM |  | 
